Tested on: MS, MAT1A, MAT2A, AHYC and DNMT1 mRNA
Assay: Methionine cycle and methylase gene expression in SkMel-28 (real-time PCR)
Type: cell-based, human
Description: Histograms compare the estimated relative levels of the mRNA with respect to that of β-actin. Values represent the number of copies of mRNA per each 1×10^6 copies of β-actin.
Primers were designer using Primer Express version 2.0 software (Applied Biosystems, Foster City, Calif.) and synthesized by Invitrogen. The sequence of the primers are as follow: MS (forward: 5′-[…]-[…]-3′; […]; MAT1A (forward: 5′-[…]-[…]; […]; The primers designed to amplify FRα cDNA were: FR1 (forward: 5′-[…]-[…]-3′); […]; cDNA samples (1 μL) were used for real-time PCR in a total volume of 20 μL using SYBR Green Reagent (Applied Biosystems) and specific primers on a 7500 Real Time PCR System of Applied Biosystems. The PCR amplification cycles included denaturation 95° C., 15 min; to activate HotStar Taq DNA polymerase and to minimize primer-dimer contribution), and amplification [over 40-50 cycles including denaturation (94° C.; 30 s), annealing (55° C.; 30 s), and extension (72° C.; 1 min)]. All PCR reactions were performed in triplicate and from at least two independent experiments. Non-RT control and negative control samples (without template) were processed in the same manner. The specificity of the amplification was verified by melting curve analysis for all samples, and occasionally by agarosa gel electrophoresis. Amplification of target gene sequences were compared against serial dilutions of know quantities of their purified cDNA fragments, and normalized to the abundance of the house-keeping gene β-actin.

[1] = SkMel-28, 50 μM, five days, versus untreated SkMel-28

With `COc1cc(C(=O)O[C@@H]2Cc3c(O)cc(O)cc3O[C@@H]2c2ccc(O)c(O)c2)cc(OC)c1OC` [TMECG, 3-O-(3,4,5-trimethoxybenzoyl)-(−)-epicatechin] the “level of MAT1A mRNA” value [1] was “essentially the some”, the “level of MAT2A mRNA” value [1] was “slightly but significant increase” and the “DNMT1 mRNA” value (SkMel-28, treated cells) was “recovered normal levels”.

Reference: patent US9060997B2, “Antifolate compounds for the treatment of melanoma” (UNIVERSIDAD DE MURCIA, priority 2007, dated 2015)
